{"source": "patent US11072625B2", "about": "(GLYCOMIMETICS, INC., priority 2016, dated 2021)", "data": [{"molecular_target": "T1, recombinant human E-selectin/CD63E Fc Chimera (Homo sapiens, UniProt P16581)", "T1 construct": "purchased R & D systems", "T1 sequence (P16581 with tags, fused parts or gaps limits assumed)": "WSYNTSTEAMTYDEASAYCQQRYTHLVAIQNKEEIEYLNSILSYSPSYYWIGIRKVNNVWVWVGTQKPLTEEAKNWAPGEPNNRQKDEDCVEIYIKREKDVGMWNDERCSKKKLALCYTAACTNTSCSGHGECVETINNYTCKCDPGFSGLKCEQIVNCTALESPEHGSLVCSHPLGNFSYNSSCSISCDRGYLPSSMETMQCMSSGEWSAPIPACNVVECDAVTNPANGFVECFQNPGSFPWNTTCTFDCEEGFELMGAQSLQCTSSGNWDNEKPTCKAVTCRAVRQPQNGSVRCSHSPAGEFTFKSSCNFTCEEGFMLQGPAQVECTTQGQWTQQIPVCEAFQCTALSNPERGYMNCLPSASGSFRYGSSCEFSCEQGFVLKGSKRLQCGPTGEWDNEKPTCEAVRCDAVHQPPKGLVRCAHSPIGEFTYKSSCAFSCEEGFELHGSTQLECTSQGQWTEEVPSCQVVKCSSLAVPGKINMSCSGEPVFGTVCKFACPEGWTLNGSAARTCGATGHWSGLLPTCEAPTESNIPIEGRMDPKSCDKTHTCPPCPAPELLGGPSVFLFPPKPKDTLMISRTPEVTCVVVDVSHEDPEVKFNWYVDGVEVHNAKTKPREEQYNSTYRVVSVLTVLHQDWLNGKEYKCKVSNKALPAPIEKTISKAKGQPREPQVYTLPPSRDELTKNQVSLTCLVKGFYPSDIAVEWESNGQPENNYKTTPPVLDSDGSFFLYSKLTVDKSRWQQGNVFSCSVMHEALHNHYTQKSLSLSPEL", "assay": "E-selectin activity, analysis by SPR (Biacore X100)", "type": "binding", "conditions": "Biacore X100, CM5 chip, E-selectin Fc chimera captured on anti-human IgG (Fc) antibody", "method": "Surface Plasmon Resonance (SPR) measurements were performed on a Biacore X100 instrument (GE Healthcare). A CM5 sensor chip (GE Healthcare) was used for the interaction between E-selectin and GMI compound. Anti-human IgG (Fc) antibody (GE Healthcare) was immobilized onto the chip by amine coupling according to the manufacturer's instructions. In brief, after a 7-min injection (flow rate of 5 μl/min) of 1:1 mixture of N-ethyl-N′-(3-dimethylaminopropyl) carbodiimide hydrochloride and N-hydroxysuccinimide, anti-human IgG (Fc) antibody (25 μg/ml in 10 mM sodium acetate buffer, pH 5.0) was injected using a 6-min injection at 5 μl min. Remaining activated groups were blocked by injecting 1 M ethanolamine/HCl, pH 8.5. The recombinant human E-selectin/CD63E Fc Chimera (50 μg/ml) (R & D systems) was injected into the experimental cell until 6000-7000 RU was captured onto the antibody surface. No recombinant human E-selectin/CD63E was injected into the control cell. Increasing concentrations of GMI compound samples were injected at 30 μl/min into both flow cells and all sensorgrams were recorded against the control. Regeneration of the anti-human IgG (Fc) surface was achieved by injecting 3M magnesium chloride, followed by 50 mM sodium hydroxide. Data were analyzed using Biacore X100 evaluation/BIA evaluation 4.1.1 software (GE Healthcare) and Graphad prism 6 software.", "units": {"Kd": "nM"}, "values": [{"smiles": "CCC1CC(C(=O)OC)C[C@@H](O[C@@H]2O[C@@H](CO)[C@H](O)C(O[C@@H](CC3CCCCC3)C(=O)N3CCC3)C2NC(C)=O)[C@@H]1O[C@@H]1OC(C)[C@@H](O)[C@H](O)C1O", "note": "(some centres unmarked) [Compound 4]", "Kd": 2600}, {"smiles": "CCC1CC(C(=O)NCCNC(=O)CCOCCOCCOCCOCCOCCOCCOCCOCCOCCOCCOCCOCCOCCOCCOCCOCCOCCOCCOCCOCCOCCC(=O)NCCNC(=O)C2CC(CC)C(OC3OC(C)C(O)C(O)C3O)C(OC3OC(CO)C(O)C(OC(CC4CCCCC4)C(=O)O)C3NC(C)=O)C2)CC(OC2OC(CO)C(O)C(OC(CC3CCCCC3)C(=O)O)C2NC(C)=O)C1OC1OC(C)C(O)C(O)C1O", "note": "(centres unmarked) [Compound 13]", "Kd": 4.7}, {"smiles": "CCC1CC(C(=O)NCCNC(=O)CCOCCOCCOCCOCCOCCOCCOCCOCCOCCOCCOCCOCCOCCC(=O)NCCNC(=O)C2CC(CC)C(OC3OC(C)C(O)C(O)C3O)C(OC3OC(CO)C(O)C(OC(CC4CCCCC4)C(=O)O)C3NC(C)=O)C2)CC(OC2OC(CO)C(O)C(OC(CC3CCCCC3)C(=O)O)C2NC(C)=O)C1OC1OC(C)C(O)C(O)C1O", "note": "(centres unmarked) [Compound 14]", "Kd": 6.6}, {"smiles": "CCC1CC(C(=O)NCCNC(=O)CCOCCOCCOCCOCCOCCOCCOCCOCCOCCOCCC(=O)NCCNC(=O)C2CC(CC)C(OC3OC(C)C(O)C(O)C3O)C(OC3OC(CO)C(O)C(OC(CC4CCCCC4)C(=O)O)C3NC(C)=O)C2)CC(OC2OC(CO)C(O)C(OC(CC3CCCCC3)C(=O)O)C2NC(C)=O)C1OC1OC(C)C(O)C(O)C1O", "note": "(centres unmarked) [Compound 15]", "Kd": 6}, {"smiles": "CCC1CC(C(=O)NCCNC(=O)CCOCCOCCOCCOCCOCCOCCC(=O)NCCNC(=O)C2CC(CC)C(OC3OC(C)C(O)C(O)C3O)C(OC3OC(CO)C(O)C(OC(CC4CCCCC4)C(=O)O)C3NC(C)=O)C2)CC(OC2OC(CO)C(O)C(OC(CC3CCCCC3)C(=O)O)C2NC(C)=O)C1OC1OC(C)C(O)C(O)C1O", "note": "(centres unmarked) [Compound 16]", "Kd": 6}, {"smiles": "CCC1CC(C(=O)NCCNC(=O)CCOCCOCCOCCOCCC(=O)NCCNC(=O)C2CC(CC)C(OC3OC(C)C(O)C(O)C3O)C(OC3OC(CO)C(O)C(OC(CC4CCCCC4)C(=O)O)C3NC(C)=O)C2)CC(OC2OC(CO)C(O)C(OC(CC3CCCCC3)C(=O)O)C2NC(C)=O)C1OC1OC(C)C(O)C(O)C1O", "note": "(centres unmarked) [Compound 17]", "Kd": 5.1}, {"smiles": "CCC1CC(C(=O)NCCNC(=O)CCOCCOCCC(=O)NCCNC(=O)C2CC(CC)C(OC3OC(C)C(O)C(O)C3O)C(OC3OC(CO)C(O)C(OC(CC4CCCCC4)C(=O)O)C3NC(C)=O)C2)CC(OC2OC(CO)C(O)C(OC(CC3CCCCC3)C(=O)O)C2NC(C)=O)C1OC1OC(C)C(O)C(O)C1O", "note": "(centres unmarked) [Compound 18]", "Kd": 3.5}, {"smiles": "CC[C@H]1C[C@@H](C(=O)NCCNC(=O)CCC(=O)NCCNC(=O)C2C[C@H](CC)[C@@H](O[C@@H]3O[C@@H](C)[C@@H](O)[C@@H](O)[C@@H]3O)[C@H](O[C@@H]3O[C@H](CO)[C@H](O)[C@H](O[C@@H](CC4CCCCC4)C(=O)O)[C@H]3NC(C)=O)C2)C[C@@H](OC2O[C@H](CO)[C@H](O)[C@H](O[C@@H](CC3CCCCC3)C(=O)O)[C@H]2NC(C)=O)[C@@H]1O[C@@H]1O[C@@H](C)[C@@H](O)[C@@H](O)[C@@H]1O", "note": "(some centres unmarked) [Compound 19]", "Kd": 10.2}, {"smiles": "CCC1CC(C(=O)NCCNC(=O)CCOCCOCCOCCOCCOCCOCCOCCOCCOCCOCCC(=O)NCCNC(=O)C2CC(CC)C(OC3OC(C)C(O)C(O)C3O)C(OC3OC(CO)C(O)C(OC(CC4CCCCC4)C(=O)N4CCC4)C3NC(C)=O)C2)CC(OC2OC(CO)C(O)C(OC(CC3CCCCC3)C(=O)N3CCC3)C2NC(C)=O)C1OC1OC(C)C(O)C(O)C1O", "note": "(centres unmarked) [Compound 20]", "Kd": 0.8}, {"smiles": "CCC1CC(C(=O)NCCNC(=O)CCOCCOCCOCCOCCC(=O)NCCNC(=O)C2CC(CC)C(OC3OC(C)C(O)C(O)C3O)C(OC3OC(CO)C(O)C(OC(CC4CCCCC4)C(=O)N4CCC4)C3NC(C)=O)C2)CC(OC2OC(CO)C(O)C(OC(CC3CCCCC3)C(=O)N3CCC3)C2NC(C)=O)C1OC1OC(C)C(O)C(O)C1O", "note": "(centres unmarked) [Compound 23]", "Kd": 2.8}, {"smiles": "CCC1CC(C(=O)NCCNC(=O)CCOCCOCCC(=O)NCCNC(=O)C2CC(CC)C(OC3OC(C)C(O)C(O)C3O)C(OC3OC(CO)C(O)C(OC(CC4CCCCC4)C(=O)N4CCC4)C3NC(C)=O)C2)CC(OC2OC(CO)C(O)C(OC(CC3CCCCC3)C(=O)N3CCC3)C2NC(C)=O)C1OC1OC(C)C(O)C(O)C1O", "note": "(centres unmarked) [Compound 25]", "Kd": 3}, {"smiles": "CC[C@H]1C[C@@H](C(=O)NCCNC(=O)c2cn(CCOCCOCCOCCn3cc(C(=O)NCCNC(=O)[C@@H]4C[C@H](CC)[C@@H](O[C@@H]5O[C@@H](C)[C@@H](O)[C@@H](O)[C@@H]5O)[C@H](O[C@@H]5O[C@H](CO)[C@H](O)[C@H](O[C@@H](CC6CCCCC6)C(=O)O)[C@H]5NC(C)=O)C4)nn3)nn2)C[C@@H](OC2O[C@H](CO)[C@H](O)[C@H](O[C@@H](CC3CCCCC3)C(=O)O)[C@H]2NC(C)=O)[C@@H]1OC1O[C@@H](C)[C@@H](O)[C@@H](O)[C@@H]1O", "note": "(some centres unmarked) [Compound 27]", "Kd": 8.6}, {"smiles": "CCC1CC(C(=O)NCCNC(=O)c2cn(CCOCCOCCn3cc(C(=O)NCCNC(=O)C4CC(CC)C(OC5OC(C)C(O)C(O)C5O)C(OC5OC(CO)C(O)C(OC(CC6CCCCC6)C(=O)O)C5NC(C)=O)C4)nn3)nn2)CC(OC2OC(CO)C(O)C(OC(CC3CCCCC3)C(=O)O)C2NC(C)=O)C1OC1OC(C)C(O)C(O)C1O", "note": "(centres unmarked) [Compound 28]", "Kd": 3.2}, {"smiles": "CC[C@H]1C[C@@H](C(=O)NCCNC(=O)c2cn(CC(=O)NCCNC(=O)[C@@H]3C[C@H](CC)[C@@H](O[C@@H]4O[C@@H](C)[C@@H](O)[C@@H](O)[C@@H]4O)[C@H](O[C@@H]4O[C@H](CO)[C@H](O)[C@H](O[C@@H](CC5CCCCC5)C(=O)O)[C@H]4NC(C)=O)C3)nn2)C[C@@H](OC2O[C@H](CO)[C@H](O)[C@H](O[C@@H](CC3CCCCC3)C(=O)O)[C@H]2NC(C)=O)[C@@H]1OC1O[C@@H](C)[C@@H](O)[C@@H](O)[C@@H]1O", "note": "(some centres unmarked) [Compound 31]", "Kd": 3.3}, {"smiles": "CC[C@H]1C[C@@H](C(=O)NCCNC(=O)NCCNC(=O)[C@@H]2C[C@H](CC)[C@@H](O[C@@H]3O[C@@H](C)[C@@H](O)[C@@H](O)[C@@H]3O)[C@H](O[C@@H]3O[C@H](CO)[C@H](O)[C@H](O[C@@H](CC4CCCCC4)C(=O)O)[C@H]3NC(C)=O)C2)C[C@@H](OC2O[C@H](CO)[C@H](O)[C@H](O[C@@H](CC3CCCCC3)C(=O)O)[C@H]2NC(C)=O)[C@@H]1OC1O[C@@H](C)[C@@H](O)[C@@H](O)[C@@H]1O", "note": "(some centres unmarked) [Compound 32]", "Kd": 8.8}, {"smiles": "CCC1CC(C(=O)NCCNC(=O)c2cn(CCOCCC(=O)NCCCCC(NC(=O)CCOCCn3cc(C(=O)NCCNC(=O)C4CC(CC)C(OC5OC(C)C(O)C(O)C5O)C(OC5OC(CO)C(O)C(OC(CC6CCCCC6)C(=O)O)C5NC(C)=O)C4)nn3)C(=O)OCc3ccccc3)nn2)CC(OC2OC(CO)C(O)C(OC(CC3CCCCC3)C(=O)O)C2NC(C)=O)C1OC1OC(C)C(O)C(O)C1O", "note": "(centres unmarked) [Compound 37]", "Kd": 3.9}, {"smiles": "CC[C@H]1C[C@@H](C(=O)NCCNC(=O)NCCNC(=O)[C@@H]2C[C@H](CC)[C@@H](O[C@@H]3O[C@@H](C)[C@@H](O)[C@@H](O)[C@@H]3O)[C@H](O[C@@H]3O[C@H](CO)[C@H](O)[C@H](O[C@@H](CC4CCCCC4)C(=O)N4CCC4)[C@H]3NC(C)=O)C2)C[C@@H](OC2O[C@H](CO)[C@H](O)[C@H](O[C@@H](CC3CCCCC3)C(=O)N3CCC3)[C@H]2NC(C)=O)[C@@H]1OC1O[C@@H](C)[C@@H](O)[C@@H](O)[C@@H]1O", "note": "(some centres unmarked) [Compound 45]", "Kd": 2.1}]}]}
